According to patent US20220017863A1, “SIRT2-ABLATED CHIMERIC T CELLS” (H. Lee Moffitt Cancer Center and Research Institute, Inc., priority 2019, published 2022):
Entries after “also recorded” stand apart in the source; their conditions may differ.

How the values were obtained:
[1] = tested on: CD3-stimulated CD3+ splenic T cells; assay: Seahorse OCR of activated CD3+ splenic T cells with mitochondrial fuel pathway inhibitors; type: cell-based, mouse; details: for maximal respiration: activated Sirt2−/− CD3+ T cells; for maximal respiration (in response of FCCP): activated WT CD3+ T cells
Protocol: (§1) Extracellular acidification rate (ECAR) and oxygen consumption rate (OCR) were measured using the Seahorse XF analyzer (Agilent technologies). Glycolysis Stress Test (GST), glycolytic rate assay (GRA) and mitochondrial stress test (MST) were purchased from Agilent technologies and performed according to the kit manufacturer's instructions.
(§2) The day of the assay, 2×10^5 activated T cells were plated in Cell-Tak (Corning)-coated XF96 plates in XF media (XF RPMI Medium pH 7.4 containing 2 mM L-glutamine only for GST or supplemented with 10 mM glucose, 2 mM L-glutamine and 1 mM sodium pyruvate for GRA and MST, all from Agilent technologies) via centrifugation to ensure cell attachment. Cells were equilibrated for 1 hr in a non-CO2 incubator before starting the assay.
(§3) To measure the contribution of glycolysis, glutaminolysis and FAO as fuels for mitochondrial metabolism, OCR and ECAR were measured under basal conditions and in response to sequential injections of vehicle, UK5099 (2 μM), BPTES (3 μM) or Etomoxir (4 μM) inhibitors and then 1 μM oligomycin, 1 μM FCCP (Carbonyl cyanide 4-trifluoromethoxyphenylhydrazone) and 0.5 μM rotenone/antimycin A.

[2] = tested on: TILs from B16F10 tumor nodules; assay: Seahorse OCR of TILs freshly isolated from B16F10 tumor nodules with Etomoxir; type: cell-based, mouse
Protocol: Lymphocytes from subcutaneous tumors were isolated by dicing the tissues followed by enzymatic digestion in PBS containing collagenase type 4 (2 mg/ml, Worthington Biochemical) and DNase I (0.25 mg/ml, Sigma-Aldrich) for 45 min with occasional shaking at 37° C. Cell suspensions were then twice filtered through 100 μm and 40 μm cell strainers (Thermo Fisher Scientific) to obtain single-cell suspension followed by a PBS wash and red blood cell lysis using RBC Lysis Buffer (Biolegend). TILs were finally isolated by density gradient centrifugation using Percoll (GE Healthcare) and were further purified using CD3c MicroBeads Kit™ (Miltenyi Biotec) according to the manufacturer's instructions. T cell purity was greater than 90%. Fresh TILs were used directly for phenotypic and metabolic analyses or were cultured in complete RPMI medium for functional assays.
as §3

human CD3+ T cells [3] = assay: Seahorse extracellular flux analysis of CD3-stimulated human CD3+ T cells from healthy donors; type: cell-based; details: anti-CD3 plus inhibitor vs vehicle, 48 hr
Protocol: (§4) Human peripheral blood mononuclear cells (PBMC) were obtained from healthy donors by density gradient centrifugation using Ficoll-Paque™ PLUS Media (GE Healthcare). CD3^+ lymphocytes were negatively enriched using human Pan T cell isolation Kit™ (Miltenyi Biotec).
Extracellular acidification rates (ECAR) were measured using the Seahorse XF analyzer (Agilent). Glycolysis Stress Test (GST) and glycolytic rate assay (GRA) were performed according to kit manufacturer's instructions.
as §2, with “test,” for “and MST,”, “hour” for “hr”
For GST, ECAR was measured under basal conditions and in response to 10 mM glucose, 1 μM oligomycin and 50 mM 2-DG successively to calculate basal glycolytic rate, glycolytic capacity (in response to oligomycin), and glycolytic reserve (glycolytic capacity−basal rate). For GRA, ECAR was measured under basal conditions and in response to 0.5 μM rotenone+0.5 μM antimycin A and 50 mM 2-DG successively to calculate basal glycolysis and compensatory glycolysis (in response to rotenone+antimycin A). Results were normalized to total protein quantified using Pierce™ BCA Protein Assay Kit (ThermoFisher Scientific).
Human peripheral blood mononuclear cells (PBMC) were obtained from healthy donors by density gradient centrifugation using Ficoll-Paque™ PLUS Media (GE Healthcare). CD3^+ lymphocytes were negatively enriched using human Pan T cell isolation Kit™ (Miltenyi Biotec). […].
as §1, with “instructions. […]” for “instructions.”
For GST, ECAR and OCR were measured under basal conditions and in response to 10 mM glucose, 1 μM oligomycin and 50 mM 2-DG successively to calculate basal glycolytic rate, glycolytic capacity (in response to oligomycin), and glycolytic reserve (glycolytic capacity basal rate).
For GRA, ECAR and OCR were measured under basal conditions and in response to 0.5 μM roteone/antimycin A and 50 mM 2-DG successively to calculate basal glycolysis and compensatory glycolysis (in response to rotenone/antimycin A).

human CD3+ T cells [4] = assay: IFN-γ ELISPOT on human CD3+ T cells from healthy donors; type: cell-based; details: inhibitor vs vehicle, 48 hr, listed as TM
[5] = biological target: T1, Sirt2 deacetylase activity (Homo sapiens, UniProt Q8IXJ6); assay: Western blot of acetylated α-tubulin in human CD3+ enriched T cells; type: cell-based; details: 48 hr, listed as TM
T1 construct: endogenous in cells; host or cells: human CD3+ T cells enriched from PBMC of healthy donors
T1 sequence (Q8IXJ6 1-389): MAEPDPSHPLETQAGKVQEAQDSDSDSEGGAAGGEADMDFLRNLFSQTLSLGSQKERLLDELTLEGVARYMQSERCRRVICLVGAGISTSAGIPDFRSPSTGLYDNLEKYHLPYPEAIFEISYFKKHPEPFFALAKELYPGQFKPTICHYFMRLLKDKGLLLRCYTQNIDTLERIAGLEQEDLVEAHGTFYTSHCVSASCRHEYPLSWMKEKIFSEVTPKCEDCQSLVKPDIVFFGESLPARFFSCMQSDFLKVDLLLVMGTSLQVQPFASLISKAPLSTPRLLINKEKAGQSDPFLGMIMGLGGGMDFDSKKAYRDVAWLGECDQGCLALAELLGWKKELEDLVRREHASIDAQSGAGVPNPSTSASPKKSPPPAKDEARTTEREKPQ
Protocol: as §4
Whole cell lysates were prepared using lysis buffer (Pierce RIPA buffer, ThermoFisher Scientific) supplemented with cOmplete™ Protease Inhibitor Cocktail and PhosSTOP Phosphatase Inhibitor (Roche Applied Science).
Cell lysates (20 ug) or IP samples were loaded onto 10% SDS-PAGE and separated by electrophoresis followed by semi-dry transfer into polyvinylidene fluoride membranes (Immun-Blot PVDF membrane, Bio-Rad) using Trans-Blot Turbo transfer system (Bio-Rad). After transfer, the membranes were blocked at room temperature with Tris-buffered saline (TBS) containing 0.05% Tween-20 (TBST) and 5% (w/v) milk for 1 h and then incubated overnight at 4° C. with a specific primary antibody (indicated below). […] After washing 3 times with TBST, bound antibodies were detected by chemiluminescence using the Pierce™ ECL Western Blotting Substrate and the Super Signal West Femto Maximum Sensitivity Substrate kits (ThermoFisher Scientific). […]

Pmel T cells = assay: IFN-γ ELISPOT on gp100-stimulated Pmel T cells; type: cell-based, mouse; details: gp100-stimulated Sirt2KO (Sirt2−/−) Pmel T cells
Protocol: Spleens and/or Lymph nodes (LN) were collected from WT, Sirt2KO, Pmel/WT, Pmel/Sirt2KO mice and processed into single-cell suspensions. CD3^+, CD4^+ and CD8^+ T cells were negatively enriched using Mouse Pan T cell, CD4^+ T cell and CD8^+ T cell isolation Kits™ respectively according to the manufacturers' instructions. The purity of the isolated cells was confirmed by flow cytometry (>95%). Purified T cells were cultured in completed RPMI 1640 medium (ThermoFisher Scientific) supplemented with 10% (vol/vol) Fetal bovine serum (FBS, Biowest) and 1% (vol/vol) penicillin/streptomycin (P/S, Thomas Scientific Inc). […]
The number of IFN-γ producing cells was evaluated in an ELISPOT assay. […] After washing steps and biotinylated anti-IFN-γ antibody (R4-6A2, ThermoFisher Scientific)+Streptavidin-HRP (BD Bioscience) labeling, spots were detected using AEC Substrate Kit (BD Biosciences) and counted using an AID ELISPOT Reader System (Autoimmun Diagnostika GmbH). […]
The number of IFN-γ producing cells was evaluated in an ELISPOT assay. […] After washing steps and successive biotinylated anti-IFN-γ antibody (R4-6A2, Mabtech, Inc.) and Streptavidin-HRP (BD Bioscience) labeling, spots were detected using AEC Substrate Kit (BD Biosciences) and counted using an AID ELISPOT Reader System (Autoimmun Diagnostika GmbH).

`O=C(Cc1ccccc1)Nc1nnc(CCSCCc2nnc(NC(=O)Cc3ccccc3)s2)s1` [BPTES] was tested. Which maximal respiration [1] did it give?
Its maximal respiration is “insensitive”.

What about the “maximal respiration (in response of FCCP)” value [1] of the same molecule?
Its value is “significantly suppressed”.

For `CCOC(=O)[C@@]1(CCCCCCOc2ccc(Cl)cc2)CO1` [Etomoxir], which maximal respiration [1] is on record?
Its maximal respiration is “insensitive”.

And the “maximal respiration (in response of FCCP)” value [1]?
The value was “significantly suppressed”.

And the maximal respiration ([2]; Sirt2−/− TILs)?
The maximal respiration was “remained resistant”.

And the maximal respiration ([2]; WT TILs)?
The maximal respiration was “decreases”.

Which results are given for `CCCCCCCCCCCCCC(=S)NCCCC[C@H](NC(=O)OCc1ccccc1)C(=O)Nc1ccccc1` [Thiomyristoyl]?
OxPhos (human CD3+ T cells [3]): increased; aerobic glycolysis (ECAR/PER) (human CD3+ T cells [3]; listed as TM): increased; also recorded: augments; IFN-γ production (effector function) (human CD3+ T cells [4]): increased; also recorded: augments; capacity to block Sirt2 deacetylase activity, monitored by acetylated α-tubulin levels [5]: confirmed; also recorded: validated

Which results are given for `N#C/C(=C\c1cn(-c2ccccc2)c2ccccc12)C(=O)O` [UK5099]?
maximal respiration [1]: insensitive; maximal respiration (in response of FCCP) [1]: significantly suppressed

`CC[C@H]1/C=C/C=C/C[C@@H](C)[C@H](O)[C@@](C)(O)C(=O)[C@@H](C)[C@H](O)[C@@H](C)C(=O)[C@@H](C)[C@H](O)[C@@H](C)/C=C/C(=O)O[C@@H]2[C@H](C)[C@H](CC1)O[C@]1(CC[C@H](C)[C@H](C[C@@H](C)O)O1)[C@H]2C` [oligomycin] was tested. Which IFN-γ release (Pmel T cells) did it give?
Its IFN-γ release is “suppressed”.
